Results from ChEMBL document CHEMBL4266035, “Insulin Mimetic Activity of 3,4- Seco and Hexanordammarane Triterpenoids Isolated from Gynostemma longipes” (J Nat Prod, 2018).
Active and inactive are the calls of the source. The rule behind the calls is not given here.

Key:
[1] = organism: Mus musculus; test: Activation of AMPK signaling pathway in mouse 3T3L1 cells assessed as induction of GLUT4 translocation at 20 uM after 24 hrs by Western blot analysis; type: cell-based
[2] = test system: 3T3-L1; test: Induction of 2-NBDG uptake in differentiated mouse 3T3L1 cells after 1 hr by fluorescence microscopic method; type: functional, cell-based
[3] = test system: 3T3-L1; test: Cytotoxicity against mouse 3T3L1 cells at 40 uM after 24 hrs by MTT assay; type: cell-based; details: 3t3-l1, 24 h
[4] = test system: C2C12; test: Induction of AMPKalpha phosphorylation at Thr-172 residue in mouse C2C12 cells at 20 uM after 1 hr by Western blot analysis; type: cell-based
[5] = test system: C2C12; test: Activation of AMPKalpha in mouse C2C12 cells assessed as upregulation of ACC-phosphorylation at 20 uM after 1 hr by Western blot analysis; type: cell-based
[6] = test system: C2C12; test: Cytotoxicity against mouse C2C12 cells at 40 uM after 24 hrs by MTT assay; type: cell-based; details: c2c12, 24 h
[7] = test system: 3T3-L1; test: Induction of 2-NBDG uptake in differentiated mouse 3T3L1 cells at 20 uM after 1 hr by fluorescence microscopic method; type: functional, cell-based
[8] = test system: C2C12; test: Cytotoxicity against mouse C2C12 cells at 10 uM after 24 hrs by MTT assay; type: cell-based; details: c2c12, 24 h
[9] = test system: C2C12; test: Induction of AMPKalpha phosphorylation at Thr-172 residue in mouse C2C12 cells at 10 uM after 1 hr by Western blot analysis; type: cell-based
[10] = test system: 3T3-L1; test: Induction of 2-NBDG uptake in differentiated mouse 3T3L1 cells at 10 uM after 1 hr by fluorescence microscopic method; type: functional, cell-based
[11] = test system: 3T3-L1; test: Cytotoxicity against mouse 3T3L1 cells at 10 to 30 uM after 24 hrs by MTT assay; type: cell-based; details: 3t3-l1, 24 h

SMILES | Activity [1] | Activity [2] | Activity [3] | Activity [4] | Activity [5] | Activity [6] | Activity [7] | Activity [8] | Activity [9] | Activity [10] | Activity [11]
CC(C)=CC(=O)C[C@](C)(O)[C@H]1CC[C@]2(C)[C@@H]1C(=O)C[C@@H]1[C@@](C)(CCC(=O)O)[C@@H](C(C)(C)O)CC[C@]12C | Active | Dose-dependent effect | Non-Toxic | Active | Active | Non-Toxic | – | – | – | – | –
CC(C)(O)CC(=O)C[C@](C)(O)[C@H]1CC[C@]2(C)[C@@H]1C(=O)C[C@@H]1[C@@](C)(CCC(=O)O)[C@@H](C(C)(C)O)CC[C@]12C | Active | Dose-dependent effect | Non-Toxic | Active | Active | Non-Toxic | – | – | – | – | –
C[C@@H]1O[C@@H](OC[C@H]2O[C@@H](O[C@H]3CC[C@]4(C)[C@H]5CC(=O)[C@@H]6[C@@H]([C@@](C)(O)C/C=C/C(C)(C)O)CC[C@@]6(C)[C@]5(C)CC[C@H]4C3(C)C)[C@H](O[C@@H]3O[C@@H](C)[C@H](O)[C@@H](O)[C@H]3O)[C@@H](O[C@@H]3O[C@@H](C)[C@H](O)[C@@H](O)[C@H]3O)[C@H]2O)[C@H](O)[C@H](O)[C@H]1O | – | – | Non-Toxic | inactive | – | Non-Toxic | Active | – | – | – | –
CC(=O)[C@H]1CC[C@]2(C)[C@@H]1C(=O)C[C@@H]1[C@@](C)(CCC(=O)O)[C@@H](C(C)(C)O)CC[C@]12C | – | – | Non-Toxic | Active | – | Non-Toxic | Active | – | – | – | –
C[C@@H]1O[C@@H](OC[C@H]2O[C@@H](O[C@H]3CC[C@]4(C)[C@H]5CC(=O)[C@@H]6[C@@H]([C@@](C)(O)CC(=O)CC(C)(C)O)CC[C@@]6(C)[C@]5(C)CC[C@H]4C3(C)C)[C@H](O[C@@H]3O[C@@H](C)[C@H](O)[C@@H](O)[C@H]3O)[C@@H](O[C@@H]3O[C@@H](C)[C@H](O)[C@@H](O)[C@H]3O)[C@H]2O)[C@H](O)[C@H](O)[C@H]1O | – | – | Non-Toxic | inactive | – | Non-Toxic | Active | – | – | – | –
CC(=O)[C@H]1CC[C@]2(C)[C@@H]1C(=O)C[C@@H]1[C@@]3(C)CC[C@H](O[C@@H]4O[C@H](CO)[C@H](O)[C@H](O[C@@H]5O[C@@H](C)[C@H](O)[C@@H](O)[C@H]5O)[C@H]4O[C@@H]4O[C@@H](C)[C@H](O)[C@@H](O)[C@H]4O)C(C)(C)[C@@H]3CC[C@]12C | Active | Dose-dependent effect | Non-Toxic | Active | Active | Non-Toxic | – | – | – | – | –
C[C@@H]1O[C@@H](O[C@H]2[C@H](O[C@H]3CC[C@]4(C)[C@H]5CC(=O)[C@@H]6[C@@H]([C@@](C)(O)C/C=C/C(C)(C)O)CC[C@@]6(C)[C@]5(C)CC[C@H]4C3(C)C)O[C@H](CO)[C@H](O)[C@@H]2O[C@@H]2O[C@@H](C)[C@H](O)[C@@H](O)[C@H]2O)[C@H](O)[C@H](O)[C@H]1O | Active | Dose-dependent effect | Non-Toxic | Active | – | Non-Toxic | – | – | – | – | –
CC(C)=CC(=O)/C=C(/C)[C@H]1CC[C@]2(C)[C@@H]1C(=O)C[C@@H]1[C@@]3(C)CC[C@H](O[C@@H]4O[C@H](CO[C@@H]5O[C@@H](C)[C@H](O)[C@@H](O)[C@H]5O)[C@H](O)[C@H](O[C@@H]5O[C@@H](C)[C@H](O)[C@@H](O)[C@H]5O)[C@H]4O[C@@H]4O[C@@H](C)[C@H](O)[C@@H](O)[C@H]4O)C(C)(C)[C@@H]3CC[C@]12C | – | – | Non-Toxic | inactive | – | Non-Toxic | Active | – | – | – | –
CC(=O)[C@H]1CC[C@]2(C)[C@@H]1C(=O)C[C@@H]1[C@@]3(C)CC[C@H](O[C@@H]4O[C@H](CO[C@@H]5O[C@@H](C)[C@H](O)[C@@H](O)[C@H]5O)[C@H](O)[C@H](O[C@@H]5O[C@@H](C)[C@H](O)[C@@H](O)[C@H]5O)[C@H]4O[C@@H]4O[C@@H](C)[C@H](O)[C@@H](O)[C@H]4O)C(C)(C)[C@@H]3CC[C@]12C | – | – | Non-Toxic | Active | – | Non-Toxic | Active | – | – | – | –
CC(C)=CCC[C@](C)(O)[C@H]1CC[C@]2(C)[C@@H]1C(=O)C[C@@H]1[C@@]3(C)CC[C@H](O[C@@H]4O[C@H](CO)[C@@H](O)[C@H](O)[C@H]4O[C@@H]4O[C@@H](C)[C@H](O)[C@@H](O)[C@H]4O)C(C)(C)[C@@H]3CC[C@]12C | – | – | Toxic | – | – | Toxic | – | Non-Toxic | Active | Active | Non-Toxic
